Data as given in US4950686A, “Anti-mycoplasma agent” (Shionogi & Co., Ltd., priority 1986, dated 1990).
≈ marks a conversion by molar mass, not a printed value.

Assays:
[1] = system: Mycoplasma gallisepticum T-7-T (wild strain, tylosin-resistant); test: Anti-mycoplasma activity in vitro (MIC, broth dilution), strain T-7-T; assay type: cell-based; conditions: Mg T-7-T, 37° C., 7 days
Outline: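 Broth dilution MIC in chick PPLO broth with 20% equine serum, using 2-fold agent dilutions. Inoculum of 24-48 h culture diluted to 10^6 CCU/ml before use. Incubated 7 days at 37° C.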

[2] = system: Mycoplasma gallisepticum S6 (standard strain); test: Mycoplasma gallisepticum air-sac infection method in chicken, strain S6; assay type: in vivo, Mycoplasma gallisepticum; SPF chicken (white leghorn)
Outline: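 Right air sac of 9-day-old SPF white leghorn chickens (water/feed withheld 1 day) inoculated with 24-48 h culture diluted ~100×; compound given once orally by cannula right after infection. At day 5, air-sac lesions scored 0-3 (index = right + 2×left), and organisms isolated from both air sacs and trachea.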

[3] = 50 mg/kg × once oral, 5 mg/ml sol. b, inoculum 6.3 × 10^4
[4] = 100 mg/kg × once oral, 10 mg/ml sol. b, inoculum 1.2 × 10^6
[5] = 100 mg/kg × once oral, 10 mg/ml sol. b, inoculum 6.3 × 10^4
[6] = 200 mg/kg × once oral, 20 mg/ml sol. a, inoculum 3.1 × 10^5
[7] = 200 mg/kg × once oral, 20 mg/ml sol. c, inoculum 3.1 × 10^5

For `O=c1cccccc1O` [Tropolone, tropolone], the MIC [1] was 0.39 µg/mL (≈ 3.19 µM), the “Change of air-sac, left: + (chickens)” value [2, 3] was 0 and the “Change of air-sac, left: ++ (chickens)” value [2, 3] was 0. For the same compound, the “Change of air-sac, left: +++ (chickens)” value [2, 3] was 0, the “Change of air-sac, left: - (chickens)” value [2, 3] was 5 and the “Change of air-sac, right: + (chickens)” value [2, 3] was 2. The “Change of air-sac, right: ++ (chickens)” value [2, 3] was 0, the “Change of air-sac, right: +++ (chickens)” value [2, 3] was 0 and the “Change of air-sac, right: - (chickens)” value [2, 3] was 3. For the same compound, the “Isolation, L (left air-sac)” value [2, 3] was 0, the “Isolation, R (right air-sac)” value [2, 3] was 2 and the “Mycoplasma Isolated Chickens” value [2, 3] was 2. The “Index of Disease” value ([2]; 50 mg/kg × once oral, 5 mg/ml sol. b, inoculum 6.3 × 10^4, range 0-9.0) was 0.4, the “Index of Isolation” value ([2]; 50 mg/kg × once oral, 5 mg/ml sol. b, inoculum 6.3 × 10^4, trachea ND, range 0-6.0) was 0.4 and the “Change of air-sac, left: + (chickens)” value [2, 4] was 0. For the same compound, the “Change of air-sac, left: ++ (chickens)” value [2, 4] was 0, the “Change of air-sac, left: +++ (chickens)” value [2, 4] was 0 and the “Change of air-sac, left: - (chickens)” value [2, 4] was 8. For the same compound, the “Change of air-sac, right: + (chickens)” value [2, 4] was 0, the “Change of air-sac, right: ++ (chickens)” value [2, 4] was 0 and the “Change of air-sac, right: +++ (chickens)” value [2, 4] was 0. For the same compound, the “Change of air-sac, right: - (chickens)” value [2, 4] was 8, the “Isolation, L (left air-sac)” value [2, 4] was 0 and the “Isolation, R (right air-sac)” value [2, 4] was 0. The “Isolation, T (trachea)” value [2, 4] was 0, the “Mycoplasma Isolated Chickens” value [2, 4] was 0 and the “Index of Isolation” value ([2]; 100 mg/kg × once oral, 10 mg/ml sol. b, inoculum 1.2 × 10^6, range 0-6.0) was 0. For the same compound, the “Index of Disease” value ([2]; 100 mg/kg × once oral, 10 mg/ml sol. b, inoculum 1.2 × 10^6, range 0-9.0) was 0, the “Change of air-sac, left: + (chickens)” value [2, 5] was 0 and the “Change of air-sac, left: ++ (chickens)” value [2, 5] was 0. The “Change of air-sac, left: +++ (chickens)” value [2, 5] was 0, the “Change of air-sac, left: - (chickens)” value [2, 5] was 5 and the “Change of air-sac, right: + (chickens)” value [2, 5] was 1. The “Change of air-sac, right: ++ (chickens)” value [2, 5] was 0, the “Change of air-sac, right: +++ (chickens)” value [2, 5] was 0 and the “Change of air-sac, right: - (chickens)” value [2, 5] was 4. For the same compound, the “Isolation, L (left air-sac)” value [2, 5] was 0, the “Isolation, R (right air-sac)” value [2, 5] was 0 and the “Mycoplasma Isolated Chickens” value [2, 5] was 0. The “Index of Disease” value ([2]; 100 mg/kg × once oral, 10 mg/ml sol. b, inoculum 6.3 × 10^4, range 0-9.0) was 0.2, the “Index of Isolation” value ([2]; 100 mg/kg × once oral, 10 mg/ml sol. b, inoculum 6.3 × 10^4, trachea ND, range 0-6.0) was 0 and the “Change of air-sac, left: + (chickens)” value [2, 6] was 0. The “Change of air-sac, left: ++ (chickens)” value [2, 6] was 0, the “Change of air-sac, left: +++ (chickens)” value [2, 6] was 0 and the “Change of air-sac, left: - (chickens)” value [2, 6] was 5. The “Change of air-sac, right: + (chickens)” value [2, 6] was 0, the “Change of air-sac, right: ++ (chickens)” value [2, 6] was 0 and the “Change of air-sac, right: +++ (chickens)” value [2, 6] was 0. For the same compound, the “Change of air-sac, right: - (chickens)” value [2, 6] was 5, the “Isolation, L (left air-sac)” value [2, 6] was 0 and the “Isolation, R (right air-sac)” value [2, 6] was 1. The “Isolation, T (trachea)” value [2, 6] was 0, the “Mycoplasma Isolated Chickens” value [2, 6] was 1 and the “Index of Isolation” value ([2]; 200 mg/kg × once oral, 20 mg/ml sol. a, inoculum 3.1 × 10^5, range 0-6.0) was 0.2. The “Index of Disease” value ([2]; 200 mg/kg × once oral, 20 mg/ml sol. a, inoculum 3.1 × 10^5, range 0-9.0) was 0, the “Change of air-sac, left: + (chickens)” value [2, 7] was 0 and the “Change of air-sac, left: ++ (chickens)” value [2, 7] was 0. For the same compound, the “Change of air-sac, left: +++ (chickens)” value [2, 7] was 0, the “Change of air-sac, left: - (chickens)” value [2, 7] was 5 and the “Change of air-sac, right: + (chickens)” value [2, 7] was 0. The “Change of air-sac, right: ++ (chickens)” value [2, 7] was 0, the “Change of air-sac, right: +++ (chickens)” value [2, 7] was 0 and the “Change of air-sac, right: - (chickens)” value [2, 7] was 5. The “Isolation, L (left air-sac)” value [2, 7] was 0, the “Isolation, R (right air-sac)” value [2, 7] was 0 and the “Isolation, T (trachea)” value [2, 7] was 0. For the same compound, the “Mycoplasma Isolated Chickens” value [2, 7] was 0, the “Index of Isolation” value ([2]; 200 mg/kg × once oral, 20 mg/ml sol. c, inoculum 3.1 × 10^5, range 0-6.0) was 0 and the “Index of Disease” value ([2]; 200 mg/kg × once oral, 20 mg/ml sol. c, inoculum 3.1 × 10^5, range 0-9.0) was 0.
